Experimental data taken from patent publication US20090111733A1, “PAR-4 RELATED METHODS AND COMPOSITIONS” (President and Fellows of Harvard College, priority 2006, published 2009).
Blank lines part the entries; values can stand above or below the molecule they belong to.

Tests used:
[1] = test system: dopamine-mediated cAMP signaling; experiment: cAMP accumulation in cultured primary striatal neurons from wild type and Par-4ΔLZ embryos (cAMP EIA); format: cell-based, mouse; conditions: for upregulation of cAMP signaling comparable to that with dopamine: Par-4ΔLZ striatal neurons
Method: DIV 11-14 neurons cultured in 24 well-plates were replaced with neurobasal media supplemented with 10 mM HEPES (pH7.4) containing drugs indicated for 50 min at room temperature, cells were lysed in 200 μl of 0.1M HCl solution for 15 min with gentle shaking and spun in the microcentrifuge tubes. cAMP concentration of the supernatant was measured using the cAMP-Enzyme Immunoassay Kit (Assay Designs) following manufacture's instructions. Concentrations of cAMP were normalized using protein concentrations measured by Biorad Protein Assay System (Bio-rad).

[2] = molecular target: GST-D2i3 (GST fusion of the third intracellular loop of the long isoform of human D2DR, amino acid residues 212-373) (human); experiment: in vitro GST pull-down with purified proteins
[3] = test system: CREB S133 phosphorylation
Method: The cells were mechanically dissociated by triturating with a fine polished glass pipette, diluted in Neurobasal media (Invitrogen) supplemented with 10% horse serum and 10 mM HEPES (pH7.2), and plated in a dish coated with poly-D-lysine (Sigma) and laminin (Sigma). Cultured DIV12-13 mouse neurons were lysed for 30 min at 4° C. with gentle shaking in the extraction buffer (50 mM Tris pH8.0, 50 mM NaCl, 1.0% NP-40, 0.5% sodium deoxycholate, 0.1% SDS, 1 mM EDTA, 1 mM EGTA, 1 mM NaF, 20 mM Na4P2O7, 2 mM Na3VO4, 10% glycerol) supplemented with protease inhibitor cocktail (Sigma). Cell lysates were centrifuged for 15 min at 12,000 g at 4° C. and the supernatants were applied to ELISA using the Immunoassay kits for total CREB and […] phospho-CREB (Biosource) following the manufacturer's instruction.

Par-4/D2DR association = experiment: Co-immunoprecipitation of Par-4 with D2DR-EGFP in the stable D2DR-EGFP cell line; format: cell-based, human
[4] = test system: Par-4 nuclear translocation; experiment: Par-4 nuclear translocation in cultured striatal neurons; format: cell-based; conditions: activation of glutamate receptors
[5] = molecular target: T1, D2i3 (third intracellular loop of the long isoform of human D2DR) (Homo sapiens, UniProt P14416); experiment: In vitro binding assay with purified GST-D2i3 and Par-4LZ proteins; conditions: in the presence of Ca2+
T1 construct: A long isoform of D2i3 (amino acid 212-373) was amplified from a human D2DR cDNA clone; made in house; host or cells: E. coli BL21
T1 sequence (P14416 212-241): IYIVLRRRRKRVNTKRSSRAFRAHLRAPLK
Method: (§1) pPC97-D2i3 and pPC86-Par-4LZ plasmids were digested with SalI and NotI and cloned into pGEX4T-2 (Amersham-Pharmacia) using the same restriction sites to make GST-D2i3 and GST-Par-4LZ fusion proteins, respectively. GST-fusion proteins were expressed in BL21 bacteria and purified following manufacturer's instruction. For the in vitro binding assay, 500 nmoles of GST-Par-4LZ fusion protein in PBS was digested with 0.2 NIH units of thrombin (Sigma) for 2 hours at room temperature and the reaction was stopped by adding PMSF (10 μM, Sigma) and incubated for an additional 1 hour at 4° C. The GST portion of the digested protein was removed by glutathione sepharose (Amersham-Pharmacia). The supernatant was equilibrated to final 1× binding buffer (200 mM NaCl, 0.2% Triton X-100, 0.2mg/ml BSA and 50 mM Tris, pH 7.5). Binding reaction was initiated by adding 500 nmoles of GST-D2i3 (50 nM of GST-D2i3^221-241 in the competition assay) to Par-4LZ protein in the 1× binding buffer and incubated for 2-3 hours at 4° C. GST-D2i3 was precipitated using 100 μl of 10% glutathione sepharose in 1× binding buffer. The precipitate was washed 3 times with 1× binding buffer and resuspended in 2× SDS sample loading buffer.

[6] = molecular target: T2, D2i3 (third intracellular loop of the long isoform of human D2DR) (Homo sapiens, UniProt P14416); experiment: as above; conditions: equimolar amount of GST-D2i3 protein
T2 construct: A long isoform of D2i3 (amino acid 212-373) was amplified from a human D2DR cDNA clone; made in house; host or cells: E. coli BL21
T2 sequence (P14416 212-373): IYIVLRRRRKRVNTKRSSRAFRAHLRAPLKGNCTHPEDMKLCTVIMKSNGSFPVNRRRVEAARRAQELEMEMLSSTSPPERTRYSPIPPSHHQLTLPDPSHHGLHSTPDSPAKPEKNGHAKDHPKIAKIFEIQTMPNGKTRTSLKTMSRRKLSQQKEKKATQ
Method: as §1

Molecule: NCCc1c[nH]c2ccc(O)cc12 [serotonin]
upregulation of cAMP signaling comparable to that with dopamine [1]: not detected

percent of total protein pulled down [2]: 50%
Molecule: Par-4LZ protein (purified; human Par-4 amino acid residues 245-342, leucine zipper domain)

Molecule: NCCc1ccc(O)c(O)c1 [dopamine]
cAMP levels ([1]; Par-4ΔLZ mutant neurons, 1-10 μM of dopamine): markedly elevated | dopamine-induced downregulation of CREB S133 phosphorylation ([3]; Par-4ΔLZ neurons): not observed | CREB S133 phosphorylation ([3]; wild type neurons, dose-dependent): significantly decreased

Molecule: C/C=C(/C)C(=O)O[C@H]1C(C)=C2[C@H]([C@@H]1OC(=O)CCCCCCC)[C@@](C)(OC(C)=O)C[C@H](OC(=O)CCC)[C@@]1(O)[C@H]2OC(=O)[C@@]1(C)O [thapsigargin]
co-immunoprecipitation of Par-4 with D2DR-EGFP (Par-4/D2DR association): significantly reduced

Molecule: CCN1CCCC1CNC(=O)c1cc(S(N)(=O)=O)ccc1OC (stereo not shown) [sulpiride]
cAMP response to dopamine ([1]; Par-4ΔLZ neurons, co-treated with dopamine): no such effect | cAMP response to dopamine ([1]; wild type neurons, co-treated with 1-10 μM dopamine): enhanced

Molecule: C[C@H](CCC(=O)O)C[C@H](C)C[C@H](C)C(=O)/C=C(\O)[C@H](C)C[C@H](C)C/C=C/[C@@H](C)[C@@H](O)[C@@H](C)[C@@H](O)C[C@@H]1CC[C@@](C)([C@H]2CC[C@@](C)([C@@H](C)O)O2)O1 [ionomycin]
co-immunoprecipitation of Par-4 with D2DR-EGFP (Par-4/D2DR association): significantly reduced

Molecule: NC[C@H](O)c1ccc(O)c(O)c1 [norepinephrine]
upregulation of cAMP signaling comparable to that with dopamine [1]: not detected

Molecule: N[C@@H](CCC(=O)O)C(=O)O [glutamate]
nuclear translocation of Par-4 [4]: induce nuclear translocation

interaction of Par-4LZ with D2i3 in the presence of increasing calmodulin levels [5]: effectively interfered
Molecule: calmodulin

fraction of total Par-4LZ protein pulled down by GST-D2i3 [6]: Approximately 50%
B1: Par-4LZ: human Par-4 amino acid residues 245-342 that harbor the leucine zipper domain (protein)
chain: DRSGFPRYNRDANVSGTLVSSSTLEKKIEDLEKEVVRERQENLRLVRLMQDKEEMIGKLKEEIDLLNRDLDDIEDENEQLKQENKTLLKVVGQLTR
